The values below come from ChEMBL document CHEMBL4507301 (2021).

The target of experiment [1] is Alpha-1B adrenergic receptor (Homo sapiens, UniProt P35368). The experiment can be described thus: Binding assay (ADRA1B).
Experiment [2] has as its target Alpha-1A adrenergic receptor (Homo sapiens) (UniProt P35348). To be noted: Compound concentration 10.0 uM.
Experiment [3] concerns the target Alpha-1D adrenergic receptor (Homo sapiens, UniProt P25100). Nature of the experiment: GPCRScan assay: inhibition of Alpha1D. Set-up: radioligand conc. used [nm] 0.3 – 1.0, parental cells stable.
Experiment [4] addresses Alpha-1A adrenergic receptor (Homo sapiens, UniProt P35348). The experiment can be described thus: GPCRScan assay: inhibition of Alpha1A. Set-up: radioligand conc. used [nm] 0.2 - 1.0, parental cells stable HEK.
The target in experiment [5] is Beta-2 adrenergic receptor (Homo sapiens) (UniProt P07550). Nature of the experiment: beta2 Eurofins-Panlabs ligand profiling. The note with it: Compound concentration 10.0 uM.
Sequence of Beta-2 adrenergic receptor (Homo sapiens) (P07550 whole entry, looked up): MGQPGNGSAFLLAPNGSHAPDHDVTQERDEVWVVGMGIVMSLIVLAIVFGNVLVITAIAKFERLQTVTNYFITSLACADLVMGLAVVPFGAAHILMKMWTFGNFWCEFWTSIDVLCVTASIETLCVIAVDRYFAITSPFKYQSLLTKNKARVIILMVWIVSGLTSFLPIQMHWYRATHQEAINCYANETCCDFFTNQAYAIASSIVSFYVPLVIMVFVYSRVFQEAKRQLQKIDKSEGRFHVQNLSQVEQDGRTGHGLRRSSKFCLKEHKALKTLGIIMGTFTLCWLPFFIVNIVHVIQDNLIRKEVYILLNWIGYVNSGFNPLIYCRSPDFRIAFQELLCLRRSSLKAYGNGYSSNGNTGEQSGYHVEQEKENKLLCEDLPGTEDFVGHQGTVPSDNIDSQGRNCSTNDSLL
In experiment [6] the target is Alpha-1D adrenergic receptor (Rattus norvegicus) (UniProt P23944). The experiment can be described thus: Inhibition of phenylephrine-induced contractions in bladder strips from rats with bladder outlet obstruction. The class given is tissue-based. The note with it: Urinary bladder.
Sequence of Alpha-1D adrenergic receptor (Rattus norvegicus) (P23944 whole entry): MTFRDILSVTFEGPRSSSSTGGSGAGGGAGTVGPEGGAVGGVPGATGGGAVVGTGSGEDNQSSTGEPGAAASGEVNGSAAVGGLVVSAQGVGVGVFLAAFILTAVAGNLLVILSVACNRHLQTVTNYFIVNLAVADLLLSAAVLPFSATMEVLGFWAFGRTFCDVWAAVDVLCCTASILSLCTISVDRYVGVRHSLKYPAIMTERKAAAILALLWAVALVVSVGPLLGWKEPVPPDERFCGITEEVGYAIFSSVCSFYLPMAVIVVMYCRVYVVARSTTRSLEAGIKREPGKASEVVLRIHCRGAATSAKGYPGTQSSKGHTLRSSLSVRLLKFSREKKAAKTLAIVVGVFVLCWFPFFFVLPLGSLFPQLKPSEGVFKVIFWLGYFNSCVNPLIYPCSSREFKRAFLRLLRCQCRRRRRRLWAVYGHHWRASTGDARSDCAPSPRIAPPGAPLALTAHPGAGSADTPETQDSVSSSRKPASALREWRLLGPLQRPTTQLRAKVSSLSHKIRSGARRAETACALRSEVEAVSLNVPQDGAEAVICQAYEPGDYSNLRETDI
The target in experiment [7] is T1, Alpha-2A adrenergic receptor (Homo sapiens) (UniProt P08913).
T1 sequence (whole entry): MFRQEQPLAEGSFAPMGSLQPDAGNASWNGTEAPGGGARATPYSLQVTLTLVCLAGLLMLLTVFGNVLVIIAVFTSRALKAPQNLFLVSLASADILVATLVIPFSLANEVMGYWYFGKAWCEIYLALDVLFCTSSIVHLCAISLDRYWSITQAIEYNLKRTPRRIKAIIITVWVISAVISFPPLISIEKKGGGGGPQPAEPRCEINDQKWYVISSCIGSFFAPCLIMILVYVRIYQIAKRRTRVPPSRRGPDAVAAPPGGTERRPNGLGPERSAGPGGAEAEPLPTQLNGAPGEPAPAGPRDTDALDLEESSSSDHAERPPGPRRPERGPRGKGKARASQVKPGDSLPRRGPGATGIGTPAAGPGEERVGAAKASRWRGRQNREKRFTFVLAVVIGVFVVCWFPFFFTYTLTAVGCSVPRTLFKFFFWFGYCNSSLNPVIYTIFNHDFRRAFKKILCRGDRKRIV
Nature of the experiment: alpha2A Eurofins-Panlabs ligand profiling. To be noted: Compound concentration 10.0 uM.

In experiment [8] the target is Beta-1 adrenergic receptor (Homo sapiens) (UniProt P08588). Nature of the experiment: beta1 Eurofins-Panlabs ligand profiling. To be noted: Compound concentration 10.0 uM.
Sequence of Beta-1 adrenergic receptor (Homo sapiens) (P08588 whole entry, looked up): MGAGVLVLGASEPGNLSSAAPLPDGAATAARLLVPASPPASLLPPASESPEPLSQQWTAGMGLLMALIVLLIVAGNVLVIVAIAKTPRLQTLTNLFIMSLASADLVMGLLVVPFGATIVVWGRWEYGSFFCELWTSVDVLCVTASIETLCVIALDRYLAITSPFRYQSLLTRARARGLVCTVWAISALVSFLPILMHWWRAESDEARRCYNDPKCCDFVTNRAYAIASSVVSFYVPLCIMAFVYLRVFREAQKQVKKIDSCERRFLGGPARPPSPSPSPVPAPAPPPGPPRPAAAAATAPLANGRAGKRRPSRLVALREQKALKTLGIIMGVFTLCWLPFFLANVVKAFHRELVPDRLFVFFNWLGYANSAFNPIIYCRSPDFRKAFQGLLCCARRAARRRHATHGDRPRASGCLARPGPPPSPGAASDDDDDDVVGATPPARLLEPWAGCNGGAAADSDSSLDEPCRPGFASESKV
Experiment [9] deals with Beta-3 adrenergic receptor (Homo sapiens) (UniProt P13945). The experiment can be described thus: beta3 Eurofins-Panlabs ligand profiling. The note with it: Compound concentration 10.0 uM.
Sequence of Beta-3 adrenergic receptor (Homo sapiens) (P13945 whole entry, looked up): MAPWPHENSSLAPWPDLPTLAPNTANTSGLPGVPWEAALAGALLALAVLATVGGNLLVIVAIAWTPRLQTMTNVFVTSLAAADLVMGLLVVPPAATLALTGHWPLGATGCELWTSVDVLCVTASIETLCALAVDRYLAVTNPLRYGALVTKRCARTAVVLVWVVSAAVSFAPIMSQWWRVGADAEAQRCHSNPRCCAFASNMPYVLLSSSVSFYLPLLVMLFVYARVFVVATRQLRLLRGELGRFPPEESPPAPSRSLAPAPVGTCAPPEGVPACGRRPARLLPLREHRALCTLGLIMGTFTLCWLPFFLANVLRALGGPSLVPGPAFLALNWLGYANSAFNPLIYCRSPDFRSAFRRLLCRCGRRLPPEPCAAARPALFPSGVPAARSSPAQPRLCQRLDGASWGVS
Experiment [10] deals with 5-hydroxytryptamine receptor 5A (Homo sapiens) (UniProt P47898). The note with it: Compound concentration 10.0 uM.
Sequence of 5-hydroxytryptamine receptor 5A (Homo sapiens) (P47898 whole entry): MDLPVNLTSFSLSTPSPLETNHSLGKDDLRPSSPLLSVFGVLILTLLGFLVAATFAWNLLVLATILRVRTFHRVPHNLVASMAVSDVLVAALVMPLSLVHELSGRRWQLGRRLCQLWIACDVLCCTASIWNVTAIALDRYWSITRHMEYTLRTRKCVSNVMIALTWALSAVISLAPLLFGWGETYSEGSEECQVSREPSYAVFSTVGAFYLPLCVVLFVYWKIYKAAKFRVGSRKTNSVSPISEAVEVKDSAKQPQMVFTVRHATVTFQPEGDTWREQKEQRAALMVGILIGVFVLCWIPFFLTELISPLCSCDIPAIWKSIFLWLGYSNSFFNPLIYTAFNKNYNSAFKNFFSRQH
Experiment [11] has as its target 5-hydroxytryptamine receptor 3A (Homo sapiens) (UniProt P46098). The note with it: Compound concentration 10.0 uM.
Experiment [12] addresses Alpha-2B adrenergic receptor (Homo sapiens, UniProt P18089). Nature of the experiment: alpha2B Eurofins-Panlabs ligand profiling.

Sequence of Alpha-1D adrenergic receptor (P25100 whole entry): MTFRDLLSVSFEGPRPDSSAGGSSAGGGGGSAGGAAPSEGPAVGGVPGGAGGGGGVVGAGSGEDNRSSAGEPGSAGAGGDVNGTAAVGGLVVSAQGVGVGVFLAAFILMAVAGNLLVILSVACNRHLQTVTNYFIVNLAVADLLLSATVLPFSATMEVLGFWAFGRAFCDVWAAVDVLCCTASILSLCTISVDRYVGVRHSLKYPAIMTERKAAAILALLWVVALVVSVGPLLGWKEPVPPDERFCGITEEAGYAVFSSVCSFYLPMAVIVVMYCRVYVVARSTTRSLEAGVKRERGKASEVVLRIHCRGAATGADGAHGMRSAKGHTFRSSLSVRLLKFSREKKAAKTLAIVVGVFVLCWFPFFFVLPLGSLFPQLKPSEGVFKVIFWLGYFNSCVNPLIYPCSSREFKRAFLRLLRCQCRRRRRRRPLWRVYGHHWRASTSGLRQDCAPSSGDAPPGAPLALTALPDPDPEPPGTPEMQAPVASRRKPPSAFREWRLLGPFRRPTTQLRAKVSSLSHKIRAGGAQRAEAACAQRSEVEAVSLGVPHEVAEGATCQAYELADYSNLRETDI
Sequence of 5-hydroxytryptamine receptor 3A (Homo sapiens) (P46098 whole entry): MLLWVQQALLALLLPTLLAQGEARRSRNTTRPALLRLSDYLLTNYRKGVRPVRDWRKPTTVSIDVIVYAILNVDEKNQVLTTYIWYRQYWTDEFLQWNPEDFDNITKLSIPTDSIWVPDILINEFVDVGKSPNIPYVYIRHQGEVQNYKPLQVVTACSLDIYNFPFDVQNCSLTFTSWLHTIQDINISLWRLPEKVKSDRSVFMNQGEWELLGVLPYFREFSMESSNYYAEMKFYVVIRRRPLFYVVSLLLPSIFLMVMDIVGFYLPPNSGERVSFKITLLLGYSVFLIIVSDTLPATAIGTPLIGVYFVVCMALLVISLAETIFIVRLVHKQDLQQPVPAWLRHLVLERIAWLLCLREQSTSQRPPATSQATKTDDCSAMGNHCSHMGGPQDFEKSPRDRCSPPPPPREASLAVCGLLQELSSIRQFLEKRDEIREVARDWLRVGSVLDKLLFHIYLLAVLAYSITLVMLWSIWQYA
Sequence of Alpha-2B adrenergic receptor (P18089 whole entry): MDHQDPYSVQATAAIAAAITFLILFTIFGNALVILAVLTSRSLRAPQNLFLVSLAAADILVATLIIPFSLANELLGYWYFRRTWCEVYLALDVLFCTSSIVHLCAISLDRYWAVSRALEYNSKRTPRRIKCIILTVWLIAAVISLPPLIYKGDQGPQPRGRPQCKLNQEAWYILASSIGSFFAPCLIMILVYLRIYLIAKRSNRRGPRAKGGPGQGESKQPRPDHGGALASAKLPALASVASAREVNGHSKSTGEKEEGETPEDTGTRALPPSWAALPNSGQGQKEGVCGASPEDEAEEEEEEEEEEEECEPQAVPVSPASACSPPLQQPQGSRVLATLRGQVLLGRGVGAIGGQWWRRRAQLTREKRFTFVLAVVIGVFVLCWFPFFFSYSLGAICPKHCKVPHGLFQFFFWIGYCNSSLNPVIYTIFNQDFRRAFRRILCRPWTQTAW
Sequence of Alpha-1A adrenergic receptor (P35348 whole entry): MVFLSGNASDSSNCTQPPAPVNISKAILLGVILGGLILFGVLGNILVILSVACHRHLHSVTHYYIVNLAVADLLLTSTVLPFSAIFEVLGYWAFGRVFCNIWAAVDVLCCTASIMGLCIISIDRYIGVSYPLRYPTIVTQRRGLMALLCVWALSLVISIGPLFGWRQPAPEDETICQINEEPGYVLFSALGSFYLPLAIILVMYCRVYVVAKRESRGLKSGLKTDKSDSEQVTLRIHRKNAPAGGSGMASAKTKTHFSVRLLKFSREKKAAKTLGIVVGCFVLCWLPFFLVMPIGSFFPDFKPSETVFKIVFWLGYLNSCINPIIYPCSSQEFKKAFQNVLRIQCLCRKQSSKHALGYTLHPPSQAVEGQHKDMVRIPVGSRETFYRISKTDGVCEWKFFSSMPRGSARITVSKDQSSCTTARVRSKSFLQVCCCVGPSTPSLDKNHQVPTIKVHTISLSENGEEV
Sequence of Alpha-1A adrenergic receptor (Homo sapiens) (P35348 whole entry): as above
Sequence of Alpha-1B adrenergic receptor (P35368 whole entry): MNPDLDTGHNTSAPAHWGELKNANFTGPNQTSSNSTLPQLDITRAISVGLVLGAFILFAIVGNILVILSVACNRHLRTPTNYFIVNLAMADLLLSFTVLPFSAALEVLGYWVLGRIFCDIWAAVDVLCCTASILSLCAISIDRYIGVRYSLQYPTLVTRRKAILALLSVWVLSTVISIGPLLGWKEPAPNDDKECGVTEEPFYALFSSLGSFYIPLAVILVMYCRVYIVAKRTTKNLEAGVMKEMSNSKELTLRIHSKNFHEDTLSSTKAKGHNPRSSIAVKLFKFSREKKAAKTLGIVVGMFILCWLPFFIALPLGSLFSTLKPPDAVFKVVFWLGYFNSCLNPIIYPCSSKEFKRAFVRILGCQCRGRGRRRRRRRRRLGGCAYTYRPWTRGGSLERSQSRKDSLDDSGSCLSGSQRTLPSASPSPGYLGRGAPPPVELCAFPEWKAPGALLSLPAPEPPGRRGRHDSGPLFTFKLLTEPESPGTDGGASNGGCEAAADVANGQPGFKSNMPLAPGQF

For `C[C@@H](c1cccc(C#N)c1)n1cc(Cl)cc(C(N)=O)c1=N` [(S)-9s], the Ki was > 1200 nM (not active) in [1], 1480 nM in [3] and 1070 nM in experiment [4]. In addition, the inhibition in [2] was 54.8%.
As for `C[C@H](c1cccc(C#N)c1)n1cc(Cl)cc(C(N)=O)c1=N` [(R)-9s], the inhibition is 4% in experiment [5]; 5% in experiment [7]; -5% in [8]; -6% in [9]; 0.88% in [10]; -5.97% in experiment [11]. Besides, in [6], the IC30 is 15 nM. In addition, half-maximal inhibition in [12] (IC50) was put at 1400 nM.
